By Kb is commonly meant the affinity of an antagonist, worked out from how it opposes an agonist.

The values below come from US9657018B2, “Antagonists acting at multiple prostaglandin receptors for the treatment of inflammation” (Allergan, Inc., priority 2014, dated 2017).

The structures appear in SMILES notation.

Common to all, as to type: cell-based
For test [1], the target named is T1, human prostanoid TP receptor (Homo sapiens, UniProt P21731).
T1 construct: expressed in transfected cells
T1 sequence (P21731 1-343): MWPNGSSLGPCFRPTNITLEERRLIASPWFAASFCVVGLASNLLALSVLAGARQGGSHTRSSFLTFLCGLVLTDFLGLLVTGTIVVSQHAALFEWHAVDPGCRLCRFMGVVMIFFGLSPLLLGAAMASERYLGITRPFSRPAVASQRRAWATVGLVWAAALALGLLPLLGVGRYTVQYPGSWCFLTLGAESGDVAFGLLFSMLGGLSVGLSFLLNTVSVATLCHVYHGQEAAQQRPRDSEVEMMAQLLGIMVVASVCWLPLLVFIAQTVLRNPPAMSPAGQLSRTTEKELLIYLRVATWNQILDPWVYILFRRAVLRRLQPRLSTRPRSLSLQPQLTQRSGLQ
Put plainly: FLIPR Ca2+ signaling antagonist assay, TP receptor stable cell line. Particulars: human recombinant TP in HEK-293 EBNA cells; standard agonist U-46619; NA = no antagonism or Kb>=10,000 nM. As to the method: (§1) The above compounds were tested for PG antagonist activity as follows using human recombinant prostanoid receptor (DP1, EP1-4, FP, IP and TP) stable cell lines:
(§2) In order to measure the response of Gs and Gi coupled prostanoid receptors as a Ca^2+ signal, chimeric G protein cDNAs were used. Stable cell lines over-expressing human prostanoid DP1, EP1-4, FP, IP, and TP receptors were established as follows:
(§3) Briefly, human prostanoid DP1, EP2, and EP4 receptor cDNAs were co-transfected with chimeric Gqs cDNA containing a haemagglutanin (HA) epitope; human prostanoid EP3 receptors were co-transfected with chimeric Gqi-HA; human EP1, FP, IP, and TP receptor cDNAs were expressed with no exogenous G-proteins. Gqs and Gqi chimeric cDNAs (Molecular Devices, Sunnyvale, Calif., U.S.A.), as well as cDNAs of prostanoid receptors, were cloned into a pCEP4 vector with a hygromycin B selection marker. Transfection into HEK-293 EBNA (Epstein-Barr virus nuclear antigen) cells was achieved by the FuGENE 6 transfection Reagent (Roche Applied Science, Indianapolis, Ind., USA). Stable transfectants were selected according to hygromycin resistance. Because Gqs and Gqi contained an HA epitope, G-protein expression was detected by Western blotting analysis using anti-mouse HA monoclonal antibody and horseradish peroxidase (HRP)-conjugated secondary antibody, while functional expression of prostanoid receptors was detected by FLIPR screening (Matias et al., 2004). These stable cell lines were validated using previously published antagonists at 10 μM against serial dilutions of standard agonists by FLIPR functional assays for Ca^2+ Signaling (as described below).
(§4) Ca^2+ signaling studies were performed using a FLIPR TETRA system (Molecular Devices, Sunnyvale, Calif., USA) in the 384-format. This is a high-throughput instrument for cell-based assays to monitor Ca^2+ signaling associated with GPCRs and ion channels. Cells were seeded at a density of 5×10^4 cells/well in BioCoat poly-D-lysine coated, black wall, clear bottom 384-well plates (BD Biosciences, Franklin lakes, NJ, USA) and allowed to attach overnight in an incubator at 37° C. The cells were then washed twice with HBSS-HEPES buffer (Hanks' balanced salt solution without bicarbonate and phenol red, 20 mM HEPES, pH 7.4) using an ELx405 Select CW Microplate Washer (BioTek, Winooski, Vt., USA). After 60 min of dye-loading in the dark using the Ca^2+-sensitive dye Fluo-4AM (Invitrogen, Carlsbad, Calif., USA), at a final concentration of 2×10^−6M, the plates were washed 4 times with HBSS-HEPES buffer to remove excess dye and leaving 50 μl of buffer in each well. The plates were then placed in the FLIPR TETRA instrument and allowed to equilibrate at 37° C. AGN-211377 was added in a 25 μl volume to each well to give final concentrations of 0.1 μl. M, 0.4M, 1 μM, 3 μl. M, 10 μl. M, and 30 μl. M; or 0.067 μM, 0.4M, 0.67 μM, and 1 μM for cells over-expressing TP receptors. After 4.5 minutes, a 7-point serial dilution of the standard agonist for the corresponding receptor, in a 25 μl volume was injected at the final concentrations from 10^−11M to 10^−5M in 10-fold serial dilution increments for cells expressing human recombinant DP1, EP1, EP2, EP3, EP4, FP, and IP receptors. The dose range for the standard agonist for human recombinant TP receptors was from 10^−12M to 10^−6M. HBSS-HEPES buffer was used as the negative control for the standard agonists. Cells were excited with LED (light emitting diode) excitation at 470-495 nm and emission was measured through an emission filter at 515-575 nm. Assay plates were read for 3.5 minutes using the FLIPR^TETRA. The peak increase in fluorescence intensity was recorded for each well. On each plate, negative controls, dose response of positive controls, and co-treatments of antagonist-agonist for each dose were in triplicates. Standard agonists were as follows: DP=BW 245C, EP1-EP4=PGE2, FP=17-phenyl-PGF2a, IP=Cicaprost, and TP=U-46619. […]

In test [2] the target is T2, human prostanoid IP receptor (Homo sapiens, UniProt P43119).
T2 construct: expressed in transfected cells
T2 sequence (P43119 whole entry): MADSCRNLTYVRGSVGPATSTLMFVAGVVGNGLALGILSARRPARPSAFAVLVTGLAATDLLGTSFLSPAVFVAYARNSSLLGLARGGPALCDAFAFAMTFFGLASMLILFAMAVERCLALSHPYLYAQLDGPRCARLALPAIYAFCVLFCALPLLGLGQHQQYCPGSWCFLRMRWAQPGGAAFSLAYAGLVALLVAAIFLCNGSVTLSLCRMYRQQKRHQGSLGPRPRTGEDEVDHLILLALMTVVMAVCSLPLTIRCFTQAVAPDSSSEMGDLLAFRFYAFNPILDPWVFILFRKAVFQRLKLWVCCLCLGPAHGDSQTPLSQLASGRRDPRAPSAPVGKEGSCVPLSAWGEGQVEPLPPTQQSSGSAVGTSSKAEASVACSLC
Put plainly: FLIPR Ca2+ signaling antagonist assay, IP receptor stable cell line. Particulars: human recombinant IP in HEK-293 EBNA cells; standard agonist Cicaprost; NA = no antagonism or Kb>=10,000 nM. On the procedure:
as §1, §2, §3, §4

Test [3] has as its target T3, human prostanoid FP receptor (Homo sapiens, UniProt P43088).
T3 construct: expressed in transfected cells
Put plainly: FLIPR Ca2+ signaling antagonist assay, FP receptor stable cell line. Particulars: human recombinant FP in HEK-293 EBNA cells; standard agonist 17-phenyl-PGF2a; NA = no antagonism or Kb>=10,000 nM. On the procedure:
as §1, §2, §3, §4

The target in test [4] is T4, human prostanoid EP1 receptor (Homo sapiens, UniProt P34995).
T4 construct: expressed in transfected cells
T4 sequence (P34995 1-402): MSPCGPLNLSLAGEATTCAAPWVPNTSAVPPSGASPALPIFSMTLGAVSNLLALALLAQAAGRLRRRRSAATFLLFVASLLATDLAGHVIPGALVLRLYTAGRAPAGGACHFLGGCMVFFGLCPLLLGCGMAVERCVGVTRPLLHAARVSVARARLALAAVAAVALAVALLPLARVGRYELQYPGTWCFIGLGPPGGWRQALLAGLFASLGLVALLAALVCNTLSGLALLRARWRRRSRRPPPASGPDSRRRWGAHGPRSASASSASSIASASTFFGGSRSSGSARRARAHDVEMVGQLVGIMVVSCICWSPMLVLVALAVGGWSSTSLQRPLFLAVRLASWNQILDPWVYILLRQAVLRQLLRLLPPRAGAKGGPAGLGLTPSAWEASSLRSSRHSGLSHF
Put plainly: FLIPR Ca2+ signaling antagonist assay, EP1 receptor stable cell line. Particulars: human recombinant EP1 in HEK-293 EBNA cells; standard agonist PGE2; NA = no antagonism or Kb>=10,000 nM. On the procedure: as §1, §2, §3, §4

T3 sequence (P43088 whole entry): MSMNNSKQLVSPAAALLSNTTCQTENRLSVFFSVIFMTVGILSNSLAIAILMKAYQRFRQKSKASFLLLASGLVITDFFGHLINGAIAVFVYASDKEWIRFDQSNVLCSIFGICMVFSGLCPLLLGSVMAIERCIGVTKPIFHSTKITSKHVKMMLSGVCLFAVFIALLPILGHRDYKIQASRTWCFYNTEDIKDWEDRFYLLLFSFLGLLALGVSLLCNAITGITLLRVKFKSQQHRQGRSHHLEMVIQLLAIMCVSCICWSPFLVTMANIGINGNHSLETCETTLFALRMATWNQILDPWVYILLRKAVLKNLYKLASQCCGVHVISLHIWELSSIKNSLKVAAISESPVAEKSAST

As for `CC(C)Cn1ncc2cc(OC(F)(F)F)cc(Cn3cnc4cc(C(=O)O)ccc43)c21` [Compound 56, 1-(1-Isobutyl-5-trifluoromethoxy-1H-indazol-7-ylmethyl)-1H-benzoimidazole-5-carboxylic acid], the Kb is 30 nM in test [1], 9000 nM in test [2], above 10000 nM in test [3] and 9000 nM in test [4].

For `CC(C)Cn1ncc2cc(Cl)cc(Cc3ncc4cc(C(=O)O)ccn34)c21` [Compound 61, 3-[(5-Chloro-1-isobutyl-indazol-7-yl)methyl]imidazo[1,5-a]pyridine-7-carboxylic acid], the antagonist equilibrium constant (Kb) in test [1] was above 10000 nM; in test [2] it was above 10000 nM; in test [3], 600 nM; in test [4] it was above 10000 nM.

Take `CC(C)Cn1ncc2cc(Cl)cc(Cn3nc(N)c4cc(C(=O)O)ccc43)c21` [Compound 68, 3-Amino-1-[(5-chloro-1-isobutyl-indazol-7-yl)methyl]indazole-5-carboxylic acid]: the antagonist dissociation constant (Kb) in test [1] is 1300 nM; in test [2] it was 9300 nM; in test [3], 35 nM; in test [4] it was above 10000 nM.

Take `CNc1nn(Cc2cc(Cl)cc3cnn(CC(C)C)c23)c2ccc(C(=O)O)cc12` [Compound 70, 1-[(5-Chloro-1-isobutyl-indazol-7-yl)methyl]-3-(methylamino)indazole-5-carboxylic acid]: the Kb in test [1] turned out to be 300 nM; in test [2], 900 nM; in test [3] it was 17 nM; in test [4] it was 2300 nM.
